Values joined by “and” are separate entries in the source; they are usually repeats but may differ in a detail not shown here. Equal entries are not always repeated.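 Five concentrations, 48 hours, 96-well plates. GI50 = concentration required for 50% inhibition of growth. TGI denotes the concentration required for complete inhibition of growth.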
Columns and labels:
Test in all cases: inhibition of tumour cell growth, NCI panel, 48 h
NCI-H226 lung = test system: NCI-H226 lung
NCI-H522 lung = test system: NCI-H522 lung
SK-MEL-28 melanoma = test system: SK-MEL-28 melanoma
M14 melanoma = test system: M14 melanoma
OVCAR-8 ovarian = test system: OVCAR-8 ovarian
MOLT-4 leukemia = test system: MOLT-4 leukemia
EKVX NSCLC = test system: EKVX NSCLC
IGROV1 ovarian = test system: IGROV1 ovarian
RXF 393 renal = test system: RXF 393 renal
DU-145 prostate = test system: DU-145 prostate

## CC1=C(C(=O)Nc2ccccc2C)C(c2ccc([N+](=O)[O-])cc2)C(C(=O)Nc2ccccc2C)=C(C)N1
NCI-H226 lung
  TGI: > 100 µM
NCI-H522 lung
  TGI: > 100 µM
SK-MEL-28 melanoma
  TGI: > 100 µM
M14 melanoma
  TGI: > 100 µM
OVCAR-8 ovarian
  TGI: > 100 µM
MOLT-4 leukemia
  TGI: > 100 µM
EKVX NSCLC
  TGI: > 100 µM
IGROV1 ovarian
  TGI: > 100 µM
RXF 393 renal
  TGI: 88.2 µM

## COC(=O)c1c2c(c(C)[n+]([O-])c1C)C(=O)C=C(NCc1cccc(OC)c1)C2=O
NCI-H226 lung
  GI50: 1.72 µM
  TGI: 4.48 µM
NCI-H522 lung
  GI50: 0.429 µM
  TGI: 2.24 µM
M14 melanoma
  GI50: 0.405 µM
  TGI: 1.54 µM
DU-145 prostate
  GI50: 1.06 µM
  TGI: 2.29 µM
OVCAR-8 ovarian
  GI50: 0.29 µM
  TGI: 1.4 µM
MOLT-4 leukemia
  GI50: 1.09 µM
  TGI: 3.54 µM
EKVX NSCLC
  GI50: 1.01 µM
  TGI: 2.26 µM
IGROV1 ovarian
  GI50: 0.579 µM
  TGI: 2.18 µM
RXF 393 renal
  GI50: 1.27 µM
  TGI: 2.63 µM

## O=C(O)c1cc2ccccc2c(N=Nc2c([N+](=O)[O-])cc([N+](=O)[O-])cc2S(=O)(=O)O)c1O
NCI-H226 lung
  TGI: > 100 µM
NCI-H522 lung
  TGI: > 100 µM
SK-MEL-28 melanoma
  TGI: > 100 µM
M14 melanoma
  TGI: > 100 µM
OVCAR-8 ovarian
  TGI: > 100 µM
MOLT-4 leukemia
  TGI: > 100 µM
EKVX NSCLC
  TGI: > 100 µM
IGROV1 ovarian
  TGI: > 100 µM
RXF 393 renal
  TGI: > 100 µM

## FC(F)(F)c1ccc(C=NC23CC4CC(CC(C4)C2)C3)cc1
NCI-H226 lung
  TGI: > 100 µM
NCI-H522 lung
  TGI: > 100 µM
SK-MEL-28 melanoma
  TGI: > 100 µM
M14 melanoma
  TGI: > 100 µM
OVCAR-8 ovarian
  TGI: > 100 µM
MOLT-4 leukemia
  TGI: > 100 µM
EKVX NSCLC
  TGI: > 100 µM
IGROV1 ovarian
  TGI: > 100 µM
RXF 393 renal
  TGI: > 100 µM

## CCCCCCCCCCCCCC/C(C(=O)OC)=C(/O)C(=O)OCC
NCI-H226 lung
  TGI: > 100 µM
NCI-H522 lung
  TGI: > 100 µM
SK-MEL-28 melanoma
  TGI: 50.8 µM
M14 melanoma
  TGI: 37.4 µM
OVCAR-8 ovarian
  TGI: > 100 µM
MOLT-4 leukemia
  TGI: > 100 µM
EKVX NSCLC
  TGI: > 100 µM
IGROV1 ovarian
  TGI: > 100 µM
RXF 393 renal
  TGI: > 100 µM

## N#C/C(=C\c1ccc(Br)cc1)n1nnc2cccc(F)c21
NCI-H226 lung
  GI50: 1.57 µM
  TGI: 3.45 µM
SK-MEL-28 melanoma
  GI50: 1.87 µM
  TGI: 3.97 µM
DU-145 prostate
  GI50: 1.51 µM
  TGI: 2.85 µM
OVCAR-8 ovarian
  GI50: 2.59 µM
  TGI: 13.6 µM
EKVX NSCLC
  GI50: 1.62 µM
  TGI: 3.02 µM
RXF 393 renal
  GI50: 1.08 µM
  TGI: 2.64 µM

## CC(=O)O[C@H]1[C@@H]2[C@@H]3[C@@H](C[C@H]1C)[C@@H](C)CO[C@@]1(C)CC/C=C(/C)C[C@@H]2O[C@@H]31
NCI-H226 lung
  TGI: > 100 µM
NCI-H522 lung
  TGI: > 100 µM
SK-MEL-28 melanoma
  TGI: > 100 µM
M14 melanoma
  TGI: > 100 µM
OVCAR-8 ovarian
  TGI: > 100 µM
MOLT-4 leukemia
  TGI: > 100 µM
EKVX NSCLC
  TGI: > 100 µM
IGROV1 ovarian
  TGI: > 100 µM
RXF 393 renal
  TGI: > 100 µM

## NC(=O)c1csc(C2C=CC(CO)O2)n1 (stereo unspecified)
NCI-H226 lung
  TGI: > 100 µM
NCI-H522 lung
  TGI: > 100 µM
SK-MEL-28 melanoma
  TGI: > 100 µM
M14 melanoma
  TGI: > 100 µM
OVCAR-8 ovarian
  TGI: > 100 µM
MOLT-4 leukemia
  TGI: > 100 µM
EKVX NSCLC
  TGI: > 100 µM
IGROV1 ovarian
  TGI: > 100 µM

## CC(=O)NNc1nc(C)c(C(/C=C/c2ccc(Cl)cc2)=N\NS(=O)(=O)c2ccc(C)cc2)s1
NCI-H226 lung
  TGI: > 100 µM
NCI-H522 lung
  TGI: > 100 µM
SK-MEL-28 melanoma
  TGI: > 100 µM
M14 melanoma
  TGI: > 100 µM
OVCAR-8 ovarian
  TGI: > 100 µM
MOLT-4 leukemia
  TGI: > 100 µM
EKVX NSCLC
  TGI: > 100 µM
IGROV1 ovarian
  TGI: > 100 µM
RXF 393 renal
  TGI: > 100 µM

## Cc1ccc(NS(=O)(=O)c2cc(C(C)(C)C)ccc2OCCOCCOCCOc2ccc(C(C)(C)C)cc2S(=O)(=O)Nc2ccc(C)cc2)cc1
NCI-H226 lung
  TGI: > 100 µM
SK-MEL-28 melanoma
  TGI: > 100 µM
M14 melanoma
  TGI: > 100 µM
OVCAR-8 ovarian
  TGI: > 100 µM
MOLT-4 leukemia
  TGI: > 100 µM
EKVX NSCLC
  TGI: > 100 µM
IGROV1 ovarian
  TGI: > 100 µM
RXF 393 renal
  TGI: > 100 µM

## CCC(C(=O)[O-])C(=O)[O-].CCC(C(=O)[O-])C(=O)[O-].N.N.NCCCCCN.[Pt+4].[Pt+4]
NCI-H226 lung
  GI50: 23.4 µM
  TGI: 94.7 µM
NCI-H522 lung
  GI50: > 100 µM
  TGI: > 100 µM
SK-MEL-28 melanoma
  GI50: > 100 µM
  TGI: > 100 µM
M14 melanoma
  GI50: > 100 µM
  TGI: > 100 µM
OVCAR-8 ovarian
  GI50: > 100 µM
  TGI: > 100 µM
MOLT-4 leukemia
  GI50: 84.3 µM
  TGI: > 100 µM
EKVX NSCLC
  GI50: > 100 µM
  TGI: > 100 µM
IGROV1 ovarian
  GI50: > 100 µM
  TGI: > 100 µM
RXF 393 renal
  GI50: > 100 µM
  TGI: > 100 µM

## CO[C@H]1[C@H](O)[C@H](O[C@H]2CC[C@@]3(C)[C@H](CC[C@@H]4[C@@H]3CC[C@]3(C)[C@@H](C5=CC(=O)OC5)CC[C@]43O)C2)O[C@@H](C)[C@@H]1O
NCI-H226 lung
  TGI: 0.0192 µM and < 0.0129 µM
NCI-H522 lung
  TGI: 0.000282 µM
SK-MEL-28 melanoma
  TGI: 0.00622 µM and < 0.0227 µM
M14 melanoma
  TGI: 0.00302 µM and 0.0169 µM
DU-145 prostate
  TGI: < 0.0001 µM
OVCAR-8 ovarian
  TGI: 0.00572 µM and 0.0113 µM
MOLT-4 leukemia
  TGI: 0.00766 µM and < 0.0265 µM
EKVX NSCLC
  TGI: 0.00148 µM

## NC1=NC(c2ccccc2)N=C(Nc2ccccc2)N1 (stereo unspecified)
NCI-H226 lung
  GI50: > 100 µM
  TGI: > 100 µM
SK-MEL-28 melanoma
  GI50: > 100 µM
  TGI: > 100 µM
M14 melanoma
  GI50: > 100 µM
  TGI: > 100 µM
DU-145 prostate
  GI50: > 100 µM
  TGI: > 100 µM
OVCAR-8 ovarian
  GI50: > 100 µM
  TGI: > 100 µM
MOLT-4 leukemia
  GI50: > 100 µM
  TGI: > 100 µM
EKVX NSCLC
  GI50: > 100 µM
  TGI: > 100 µM
IGROV1 ovarian
  GI50: 39.4 µM
  TGI: > 100 µM
RXF 393 renal
  GI50: > 100 µM
  TGI: > 100 µM

## CC1C=C(OC(=O)c2ccccc2)C(=O)C(n2cc(F)c(=O)n(C(=O)c3ccccc3)c2=O)O1 (stereo unspecified)
SK-MEL-28 melanoma
  TGI: > 100 µM
M14 melanoma
  TGI: > 100 µM
OVCAR-8 ovarian
  TGI: > 100 µM
MOLT-4 leukemia
  TGI: 71.4 µM
EKVX NSCLC
  TGI: > 100 µM
IGROV1 ovarian
  TGI: > 100 µM
RXF 393 renal
  TGI: 81.7 µM

## Cn1cc2c(n1)c(N/N=C/c1ccccc1)nn1nnnc21
NCI-H226 lung
  TGI: > 100 µM
SK-MEL-28 melanoma
  TGI: > 100 µM
M14 melanoma
  TGI: > 100 µM
OVCAR-8 ovarian
  TGI: > 100 µM
MOLT-4 leukemia
  TGI: > 100 µM
EKVX NSCLC
  TGI: > 100 µM
IGROV1 ovarian
  TGI: > 100 µM
RXF 393 renal
  TGI: > 100 µM

## CCCCn1c2c(c3ccccc3c1=O)C(=O)c1ccccc1-2
NCI-H226 lung
  TGI: > 100 µM
NCI-H522 lung
  TGI: > 100 µM
SK-MEL-28 melanoma
  TGI: > 100 µM
M14 melanoma
  TGI: > 100 µM
DU-145 prostate
  TGI: > 100 µM
OVCAR-8 ovarian
  TGI: > 100 µM
EKVX NSCLC
  TGI: > 100 µM
IGROV1 ovarian
  TGI: > 100 µM

## Nc1c(C(=O)c2cccc(OCCN3CCOCC3)c2)cnn1-c1ccc(F)cc1
NCI-H226 lung
  GI50: > 25 µM
  TGI: > 25 µM
NCI-H522 lung
  GI50: > 25 µM
  TGI: > 25 µM
SK-MEL-28 melanoma
  GI50: > 25 µM
  TGI: > 25 µM
M14 melanoma
  GI50: > 25 µM
  TGI: > 25 µM
DU-145 prostate
  GI50: > 25 µM
  TGI: > 25 µM
OVCAR-8 ovarian
  GI50: > 25 µM
  TGI: > 25 µM
MOLT-4 leukemia
  GI50: > 25 µM
  TGI: > 25 µM
IGROV1 ovarian
  GI50: > 25 µM
  TGI: > 25 µM
RXF 393 renal
  GI50: > 25 µM
  TGI: > 25 µM

## COc1ncc(-c2nc3c(n2C(C)C)[C@H](c2ccc(Cl)cc2)N(c2cc(Cl)cn(C)c2=O)C3=O)c(OC)n1
NCI-H226 lung
  GI50: 15.1 µM
  TGI: 80.4 µM
NCI-H522 lung
  GI50: 69.2 µM
  TGI: > 100 µM
SK-MEL-28 melanoma
  GI50: 42.2 µM
  TGI: > 100 µM
M14 melanoma
  GI50: 36.8 µM
  TGI: > 100 µM
DU-145 prostate
  GI50: 94.8 µM
  TGI: > 100 µM
OVCAR-8 ovarian
  GI50: 59.7 µM
  TGI: > 100 µM
MOLT-4 leukemia
  GI50: 12.4 µM
  TGI: 39.6 µM
EKVX NSCLC
  GI50: 36.6 µM
  TGI: > 100 µM
IGROV1 ovarian
  GI50: 22.1 µM
  TGI: > 100 µM

## N/N=C1\c2ccccc2C2/C(=N\N)c3ccccc3C12 (stereo unspecified)
NCI-H522 lung
  TGI: > 100 µM
SK-MEL-28 melanoma
  TGI: > 100 µM
M14 melanoma
  TGI: > 100 µM
OVCAR-8 ovarian
  TGI: > 100 µM
MOLT-4 leukemia
  TGI: > 100 µM
EKVX NSCLC
  TGI: > 100 µM
IGROV1 ovarian
  TGI: > 100 µM
RXF 393 renal
  TGI: > 100 µM

Reference: PubChem BioAssay (NCI)
